Laboratory results published in patent US5631248A, “Supersaturated topical compositions” (priority 1992, dated 1997).

Assay: Saturated concentration of hydrocortisone acetate in propylene glycol
Type: physicochemical
Conditions: saturated solution in propylene glycol (Sample A)

- concentration of saturated solution in propylene glycol: 0.10 % w/w
SMILES: CC(=O)OCC(=O)[C@@]1(O)CC[C@H]2[C@@H]3CCC4=CC(=O)CC[C@]4(C)[C@H]3[C@@H](O)C[C@@]21C [hydrocortisone acetate]
